Results from paper PMC10341634, “Vasodilating Effects of Antispasmodic Agents and Their Cytotoxicity in Vascular Smooth Muscle Cells and Endothelial Cells—Potential Application in Microsurgery” (International Journal of Molecular Sciences, 2023).
Like-named read-outs stand apart in the source and are kept apart here.

Tests used:
[1] = test system: NE-dependent contractions; details: cited from earlier work
[2] = cited from earlier work
[3] = 4% lidocaine administered locally; humans; cited from earlier work
[4] = test system: human coronary artery endothelial cells (HCAECs); experiment: cells
Procedure: Human coronary artery ECs were cultured in a collagen-coated dish (AGC TECHNO GLASS Co., Shizuoka, Japan) in EBM-2 (CC-3156, Lonza, Besel, Switzerland) containing Supplements and Growth Factors (CC-4176, Lonza, Besel, Switzerland). The cells were cultured at 37 °C in a 5% CO2 incubator. The medium was changed every three days until the adherent cell monolayer reached 70–80% subconfluence. Subsequently, cells were detached from the dish using Accutase. The cell suspension was diluted with medium, adjusted to a concentration of 5 × 10^4 cells/mL, and seeded into a 96-well plate. The dish was incubated for two days at 37 °C in a 5% CO2 incubator. En ECs at passages 5–6 were used, and five 96-well plates were prepared.
(§1) IC50 is the drug concentration at which half of the cells undergo cell death; it serves as an indicator of cellular toxicity. […] IC50 values were measured using the GloMax® Navigator System (Promega, Madison, WI, USA). The test compounds were diluted in the culture medium and stored in an incubator until use. […] For each test compound, a control and 11 different concentrations were prepared, and the cytotoxicity after the addition of the compounds was examined. The RealTime-GloTM MT Cell Viability Assay kit (Promega, cat#G9711, USA) was used, and the substrate and Nano-luc were added to the medium in each well of a 96-well plate seeded with RSMCs and HCAECs, with 50 μL per well. The plate was incubated for 1–3 h in the incubator. Then, 50 μL of each prepared test compound was added to the plate. The IC50 values were measured using GloMax at 1, 5, 10, 30, and 60 min after the addition of the test compounds, and cytotoxicity was evaluated.

rat abdominal aorta [5] = details: cited from earlier work
[6] = test system: rat smooth muscle cells (RSMCs); experiment: cells
Procedure: Rat smooth muscle cells were cultured in DMED:F12 (Lonza, Besel, Switzerland) containing 10% fetal bovine serum, 1% penicillin/streptomycin solution (GA-1000; Lonza, Basel, Switzerland), and 1% stable glutamine (Wako, Tokyo, Japan) at 37 °C in a 5% CO2 incubator. The medium was changed every three days. Once the adherent cells reached 70–80% subconfluence, they were detached from the dish using Accutase (Nacalai Tesque, Kyoto, Japan). The cell suspension was diluted with DMED:F12 (+FBS) and adjusted to a concentration of 5 × 10^4 cells/mL, and then 100 μL of the suspension was seeded into each well of a 96-well dish (Nunc™ MicroWell™ 96-Well, Nunclon Delta-Treated, Flat-Bottom Microplate, Thermo Fisher, Waltham, MA, USA) and incubated for two days at 37 °C in a 5% CO2 incubator. Passage 6 smooth muscle cells were used, and five 96-well plates were prepared.
as §1

[7] = 1% lidocaine; cited from earlier work
rat abdominal aorta [8] = experiment: Wire myograph vasodilation of norepinephrine-contracted rat abdominal aorta rings; details: for concentration achieving maximal vasodilation effect (approximately 100% relaxation): 10 min after administration, contraction induced by 5 μM norepinephrine
Procedure: Consistent with our previous study, we applied a 1 gram-force (gf) load to approximately 1 mm cross-sectional slices of the rat abdominal aorta. Subsequently, we induced contraction by adding 5 μM norepinephrine. Various vasodilators were then added, and the concentration at which the vessels relaxed back to 1 gf was considered the concentration required for 100% relaxation.
A wire myograph system (Bio Research Co., Osaka, Japan) was used, as previously reported by Ogawa et al.. The rat abdominal aortae were cut into rings and manipulated using two L-shaped hooks. One hook was fixed, and the other was connected to an amplifier to measure the force exerted on the pulled vessel in grams. The rats were deeply anesthetized, and the abdominal aorta was dissected. The excised vessels were immersed in Ringer solution (NaCl 118 mM, KCl 4.7 mM, CaCl2/2H2O 2.5 mM, MgSO4/7H2O 1.2 mM, KH2PO4 1.2 mM, NaHCO3 25 mM, C6H12O6 11 mM, Na2EDTA 0.5 mM). The rat aorta was then sliced into approximately 1 mm-wide rings and hooked onto L-shaped hooks. The chamber was filled with 3 mL of Krebs-Ringer solution, and a gas mixture of 95% O2 and 5% CO2 was bubbled through. The chamber was maintained at 37 °C.
Once the wire myograph system was initiated, the wire was moved, and a load was exerted on the hook-attached chamber. The applied tensile force, amplified by a transducer and PowerLab (ADInstruments, Bella Vista, New South Wales, Australia), was continuously recorded as gram force using LabChart (ADInstruments, Bella Vista, New South Wales, Australia). The hook is pulled to apply a load of up to 1 gf. A resting period of approximately 10 min was required for the gradual relaxation of the vessel under tension from the hook. When relaxation reached a plateau, norepinephrine was added to the solution to achieve a final concentration of 5 μM. This causes the vessel to contract, increasing the load on the artery and surpassing 1 gf on the myograph recording. […] The reduction in load on the vessel in terms of gf was assessed to determine the relaxation rate and concentration (Figure 4). […]

[9] = design: method as in PMID 25357051; details: cited from earlier work
[10] = test system: rat testicular vasculature; design: method as in doi:10.1007/BF00585581; details: local administration after epinephrine-induced vasoconstriction; cited from earlier work
[11] = Homo sapiens, Endothelial cell, 1 min, read-out: IC50 (cell viability)
[12] = Homo sapiens, Endothelial cell, 5 min, read-out: IC50 (cell viability)
[13] = Homo sapiens, Endothelial cell, 10 min, read-out: IC50 (cell viability)
[14] = Homo sapiens, Endothelial cell, 0.5 h, read-out: IC50 (cell viability)
[15] = Homo sapiens, Endothelial cell, 1 h, read-out: IC50 (cell viability)
[16] = Rattus norvegicus, 1 min, read-out: IC50 (cell viability), RSMCs, 1 min after addition
[17] = Rattus norvegicus, 5 min, read-out: IC50 (cell viability), RSMCs, 5 min after addition
[18] = Rattus norvegicus, 10 min, read-out: IC50 (cell viability), RSMCs, 10 min after addition
[19] = Rattus norvegicus, 0.5 h, read-out: IC50 (cell viability), RSMCs, 30 min after addition
[20] = Rattus norvegicus, 1 h, read-out: IC50 (cell viability), RSMCs, 60 min after addition
[21] = read-out: IC50 (cell viability), RSMCs, 1 min after addition

Row | Compound | IC50 [4, 11] | IC50 [4, 12] | IC50 [4, 13] | IC50 [4, 14] | IC50 [4, 15] | IC50 [6, 16] | IC50 [6, 17] | IC50 [6, 18] | IC50 [6, 19] | IC50 [6, 20] | IC50 [6, 21] | concentration achieving maximal vasodilation effect (approximately 100% relaxation) (rat abdominal aorta [8]) | cellular toxicity [4] | cellular toxicity [6] | further results
1 | CCN(CC)CC(=O)Nc1c(C)cccc1C [Lidocaine, lidocaine] | 24400 µM | 16800 µM | 13500 µM | 10300 µM | 7640 µM | 55300 µM | 27900 µM | 16700 µM | 10100 µM | 7100 µM | 55300 µM | – | – | – | high concentrations relieving NE-dependent contractions and increasing blood flow [1]: 4.5 to 15 mM; low concentrations causing vasoconstriction [1]: 15 to 1500 µM; duration of antispasmodic effect [2]: 10 to 20 min; onset of antispasmodic effect [2]: 45 to 90 s; peak concentration measured in peripheral blood [3]: 1.5 µg/mL; IC50 expressed as percent concentration ([4]; EC, 1-min post-dose): 0.70%; relaxation (rat abdominal aorta [5]; 1% lidocaine for 10 min): approximately 100%; concentration achieving maximal vasodilation effect (approximately 100% relaxation) (rat abdominal aorta [5]; 10 min after administration, 5 μM norepinephrine, lidocaine data from previous research): 35 mM; IC50 expressed as percent concentration ([6]; SMC, 1-min post-dose): 1.58%; IC50 ([6]; read-out: IC50 (cell viability), RSMCs, 5 min after addition): 27900 µM; IC50 ([6]; read-out: IC50 (cell viability), RSMCs, 10 min after addition): 16700 µM; osmotic pressure [7]: 282 mOsm/L
2 | O=[N+]([O-])OCC(CO[N+](=O)[O-])O[N+](=O)[O-] [Nitroglycerine, nitroglycerin] | – | – | – | – | – | – | – | – | 130 µM | 109 µM | – | 0.022 mM | – | – | IC50 ([4]; Homo sapiens, Endothelial cell, 10 min, read-out: IC50 (cell viability), HCAECs, 10 min after addition): 35 µM; IC50 ([4]; Homo sapiens, Endothelial cell, 0.5 h, read-out: IC50 (cell viability), HCAECs, 30 min after addition): 38 µM; IC50 ([4]; Homo sapiens, Endothelial cell, 1 h, read-out: IC50 (cell viability), HCAECs, 60 min after addition): 38.8 µM; IC50 ([4]; read-out: IC50 (cell viability), HCAECs, 10 min after addition): 35.1 µM; relaxation (rat abdominal aorta [8]; at the investigated concentrations, 10 min, 5 μM norepinephrine): approximately 50%; IC50 ([6]; read-out: IC50 (cell viability), RSMCs, 30 min after addition): 134 µM
3 | Cc1[nH]c(=O)c(C#N)cc1-c1ccc2nccn2c1 [Olprinone, olprinone] | – | – | – | – | – | – | – | – | – | – | – | – | No cellular toxicity was observed | No cellular toxicity was observed | –
4 | COc1ccc(Cc2nccc3cc(OC)c(OC)cc23)cc1OC [Papaverine, papaverine] | 56 µM | 4.04 µM | 4.29 µM | 5 µM | 6.48 µM | 100 µM | 118 µM | 13.5 µM | 15.9 µM | 1.5 µM | 97 µM | 0.18 mM | – | – | pH of clinically used concentrations [9]: 3–4.5; time until effects become evident ([2]; after local administration): 1 to 5 min; IC50 ([6]; read-out: IC50 (cell viability), RSMCs, 1 min after addition, listed as papaverine hydrochloride): 97 µM; IC50 ([6]; read-out: IC50 (cell viability), RSMCs, 60 min after addition): 1.46 µM
5 | Cc1ccc(N(CC2=NCCN2)c2cccc(O)c2)cc1 [Phentolamine, phentolamine] | – | – | – | – | – | – | – | – | – | – | – | – | No cellular toxicity was observed | No cellular toxicity was observed | onset of the effect [10]: ≤ 2 min; sustained effect [10]: up to 20 min
